Results on two molecules are retold here after patent US6949350B1, “Chemosensitivity determination using phosphatidylserine” (Evotec Analytical Systems GmbH, priority 1999, dated 2005).

As usually defined, the Kd is the equilibrium constant for the complex coming apart.

Starred links: 1 amine or outer side, 2 acyl side, 3 side chain; linkers in the order of their positions; H or OH if unused. Positions of bridges follow the written chain, without caps; N, C: chain ends. Non-standard residues stand in square brackets, D forms with d. Residues, ends and D or L forms follow the SMILES beside them. Chains are numbered I, II in the order given. Actinocin(9to1) = Cc1c2oc3c(C)ccc(C(=O)[*:1])c3nc-2c(C(=O)[*:2])c(N)c1=O; NMeV = CN[C@H](C(=O)O)C(C)C; Sar = CNCC(=O)O

One test relates to Jurkat P40 cells. The test is described as follows: time-resolved apoptosis detection with fluorescence-labeled annexin V by fluorescence microscopy. The test is classed as cell-based. The following applies: 1 μg/ml. On the procedure:
100,000 Jurkat P40 cells were simultaneously mixed with 1 μg/ml actinomycin D in the presence of 2 mM CaCl2 and fluorescence-labeled annexin V and incubated at 37° C. in 5% CO2 over a period of up to 24 h. After 4, 6, 8, 10 and 24 h, an aliquot was withdrawn, applied to a glass slide, fixed and analyzed by fluorescence microscopy. […] When the time elapsed was extended and the cell destruction more advanced, there would be a time when fluorescent cell debris would no longer be visible. It was shown that apoptosis in a solution can be followed in a time-resolved manner by recording images at different times. The reaction mix was prepared at the beginning, and subsequently, the increasing apoptosis was only analyzed by means of imaging methods.

The conditions of test [1]: marker which binds phosphatidylserine; binding depends on calcium cations; cited from earlier work.

Take `Cc1c2oc3c(C)ccc(C(=O)N[C@@H]4C(=O)N[C@H](C(C)C)C(=O)N5CCC[C@H]5C(=O)N(C)CC(=O)N(C)[C@@H](C(C)C)C(=O)O[C@@H]4C)c3nc-2c(C(=O)N[C@@H]2C(=O)N[C@H](C(C)C)C(=O)N3CCC[C@H]3C(=O)N(C)CC(=O)N(C)[C@@H](C(C)C)C(=O)O[C@@H]2C)c(N)c1=O` [actinomycin D] (I: T[dV]P[Sar][NMeV] / II: T[dV]P[Sar][NMeV]; ester I:1-I:C, II:1-II:C; linker I:N-II:N via Actinocin(9to1)): the “degree of apoptosis (number of annexin V stained cells in the observation field)” value in the test on Jurkat P40 cells (100,000 Jurkat P40 cells, 2 mM CaCl2, 37° C., 5% CO2, aliquots after 4, 6, 8, 10 and 24 h) is given as “the degree of apoptosis increases”. In addition, the “secondary necrosis (cell fragments)” value with Jurkat P40 cells (Jurkat P40 cells, after 24 h) is given as “smaller cell fragments become visible which indicate secondary necrosis”.

On to “annexin V: marker which binds phosphatidylserine”, for which the Kd in test [1] was 500 pM.
